From patent US20210317140A1, “Heterocyclic Compounds and Methods of Use” (MEDIVATION TECHNOLOGIES, INC, priority 2013, published 2021)

What was measured:
[1] = system: CD69+B220+ cells; assay: B cell activation assay (IgD-stimulated splenocytes, CD69+B220+ cells by FACS); type: cell-based; details: IgD 3 μg/mL, 4 h; for CD69 @ 100 nM (% Inh): 100 nM compound, mouse splenocytes
Protocol: 1 Female mouse approximately 2 months old was euthanized with CO2 and the spleen removed. The tissue was homogenized with a polished glass microscope slide. The cells were collected in 5 mL complete medium (RPMI+10% FBS+pen/strep), placed in a 15 mL falcon tube and centrifuged at 500×g for 5 min. The supernatant was discarded and the pellet was resuspended in 3 mL of ACK lysis buffer (NH4Cl 0.17M, KHCO3 10 mM, EDTA-Na2 0.1 mM, pH 7.2), incubated at 37° C. for 5 min. 2 mL complete medium was added and the mixture centrifuged at 500×g for 5 min. The supernatant was discarded and the pellet resuspended in 1 mL complete medium. The mixture was passed through a […] cell strainer and collect in 50 mL falcon tube. Enough medium was added to have a total of 10 mL. The cells were counted and seeded in 24 or 48-well plate in 1 mL complete medium at 10^6 cells/mL. The plate was placed in a 37° C. incubator for 15 min. The cells were treated for 30 min at 37° C. with 100 nM test compound dissolved in 100% DMSO. 3 μL IgD (Accurate chemical and scientific corp.) was added at a final concentration of 3 μg/mL and the mixture incubated at 37° C. for 4 h. The cells were collected in 1.5 mL eppendorf tubes, centrifuged at 500×g for 5 min and then resuspended in 100 μL of PBS+2% FBS. The following antibodies were added: α-B220 PE (pharmingen #553090), α-CD69 APC (pharmingen #60689), live/dead fixable aqua dead cell stain kit (life technologies #L34957) all at 1:300, and the mixture incubated for 15 min at 4° C. in the dark. To this was added 900 μL of PBS+2% FBS and the mixture centrifuged at 500×g for 5 min. The supernatant was removed and the pellet resuspended in 300 μL of PBS+2% FBS and mixed well. The mixture was transferred to a cytometer tube. The samples were run in the FACS Canto II cytometer and quantified by the number of CD69+B220+ cells as a percentage of the total number of B220+ alive cells.

[2] = biological target: T1, BTK (Homo sapiens, UniProt Q06187); assay: BTK kinase assay (HotSpot, 33P ATP); type: biochemical; details: for IC50: 10 dose IC50, 10 μM ATP; for BTK @ 0.01 μM (% Inh): 0.01 μM compound; for BTK @ 0.01 μM (% Inh) / BTK @ 0.1 μM (% Inh) / BTK @ 1 μM (% Inh): 10 μM ATP; for BTK @ 0.1 μM (% Inh): 0.1 μM compound; for BTK @ 1 μM (% Inh): 1 μM compound
T1 construct: purchased Reaction Biology Corporation
In short: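 In 20 mM Hepes (pH 7.5) with 10 mM MgCl2, 1 mM EGTA, 0.1 mM Na3VO4, 2 mM DTT, 0.02% Brij35, 0.02 mg/mL BSA and 1% DMSO, kinase and substrate were exposed to ten compound doses for 15–20 min.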

[3] = biological target: T2, PI3Kδ (Homo sapiens, UniProt O00329); assay: PI3Kδ kinase assay (HTRF, PIP3 detection); type: biochemical; details: for IC50: 10 dose IC50, 10 μM ATP; for PI3Kδ @ 0.01 μM (% Inh): 0.01 μM compound; for PI3Kδ @ 0.01 μM (% Inh) / PI3Kδ @ 0.1 μM (% Inh) / PI3Kδ @ 1 μM (% Inh): 10 μM ATP; for PI3Kδ @ 0.1 μM (% Inh): 0.1 μM compound; for PI3Kδ @ 1 μM (% Inh): 1 μM compound
T2 construct: purchased Reaction Biology Corporation
In short: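 PIP3 formation read by loss of energy transfer as it displaces biotin-PIP3 from a Eu anti-GST/GST-PH/streptavidin-APC complex, calibrated against PIP3 standards.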

T1 sequence (Q06187 whole entry): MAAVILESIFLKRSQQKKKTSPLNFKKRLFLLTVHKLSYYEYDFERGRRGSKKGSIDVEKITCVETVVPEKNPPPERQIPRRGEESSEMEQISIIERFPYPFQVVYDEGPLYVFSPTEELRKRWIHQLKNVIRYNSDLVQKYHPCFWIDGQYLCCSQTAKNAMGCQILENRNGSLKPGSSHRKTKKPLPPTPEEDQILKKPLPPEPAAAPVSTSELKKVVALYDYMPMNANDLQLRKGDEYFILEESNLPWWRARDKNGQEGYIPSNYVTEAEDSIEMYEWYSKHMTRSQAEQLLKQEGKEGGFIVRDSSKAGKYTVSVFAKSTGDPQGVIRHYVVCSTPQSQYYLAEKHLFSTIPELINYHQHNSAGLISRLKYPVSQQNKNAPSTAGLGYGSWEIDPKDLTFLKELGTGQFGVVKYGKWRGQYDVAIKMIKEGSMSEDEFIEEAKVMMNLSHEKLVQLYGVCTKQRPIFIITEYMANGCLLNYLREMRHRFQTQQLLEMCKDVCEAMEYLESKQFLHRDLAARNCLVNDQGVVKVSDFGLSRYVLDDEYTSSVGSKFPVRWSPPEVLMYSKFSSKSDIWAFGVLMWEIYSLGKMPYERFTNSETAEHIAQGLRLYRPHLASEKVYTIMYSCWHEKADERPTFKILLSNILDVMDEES
T2 sequence (O00329 whole entry): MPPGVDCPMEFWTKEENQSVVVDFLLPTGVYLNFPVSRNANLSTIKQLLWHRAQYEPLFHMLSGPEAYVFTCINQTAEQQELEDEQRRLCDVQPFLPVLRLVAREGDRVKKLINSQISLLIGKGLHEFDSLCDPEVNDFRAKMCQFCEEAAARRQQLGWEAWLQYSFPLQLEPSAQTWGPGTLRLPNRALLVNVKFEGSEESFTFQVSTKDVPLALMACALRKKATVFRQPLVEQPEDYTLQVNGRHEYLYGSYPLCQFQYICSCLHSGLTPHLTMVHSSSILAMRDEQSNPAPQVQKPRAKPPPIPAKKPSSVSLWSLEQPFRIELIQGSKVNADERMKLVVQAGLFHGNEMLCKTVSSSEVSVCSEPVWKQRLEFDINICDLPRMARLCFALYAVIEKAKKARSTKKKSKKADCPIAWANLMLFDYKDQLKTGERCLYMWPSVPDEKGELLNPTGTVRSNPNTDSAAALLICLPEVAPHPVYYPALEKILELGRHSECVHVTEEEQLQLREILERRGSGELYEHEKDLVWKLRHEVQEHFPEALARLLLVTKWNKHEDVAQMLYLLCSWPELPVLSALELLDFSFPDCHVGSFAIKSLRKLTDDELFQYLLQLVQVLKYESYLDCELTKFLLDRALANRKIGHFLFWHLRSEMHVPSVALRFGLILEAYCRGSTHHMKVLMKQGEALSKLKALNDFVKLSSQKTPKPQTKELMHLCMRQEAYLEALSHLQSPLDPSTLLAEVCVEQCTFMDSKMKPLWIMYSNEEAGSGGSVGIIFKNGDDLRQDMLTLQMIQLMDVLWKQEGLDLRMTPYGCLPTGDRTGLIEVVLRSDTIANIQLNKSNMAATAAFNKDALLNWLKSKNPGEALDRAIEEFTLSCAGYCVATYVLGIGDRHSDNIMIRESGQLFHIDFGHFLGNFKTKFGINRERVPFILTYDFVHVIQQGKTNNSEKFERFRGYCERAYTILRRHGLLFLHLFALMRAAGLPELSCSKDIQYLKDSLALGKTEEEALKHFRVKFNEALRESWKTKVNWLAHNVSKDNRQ
T2 sequence (P27986 whole entry partner): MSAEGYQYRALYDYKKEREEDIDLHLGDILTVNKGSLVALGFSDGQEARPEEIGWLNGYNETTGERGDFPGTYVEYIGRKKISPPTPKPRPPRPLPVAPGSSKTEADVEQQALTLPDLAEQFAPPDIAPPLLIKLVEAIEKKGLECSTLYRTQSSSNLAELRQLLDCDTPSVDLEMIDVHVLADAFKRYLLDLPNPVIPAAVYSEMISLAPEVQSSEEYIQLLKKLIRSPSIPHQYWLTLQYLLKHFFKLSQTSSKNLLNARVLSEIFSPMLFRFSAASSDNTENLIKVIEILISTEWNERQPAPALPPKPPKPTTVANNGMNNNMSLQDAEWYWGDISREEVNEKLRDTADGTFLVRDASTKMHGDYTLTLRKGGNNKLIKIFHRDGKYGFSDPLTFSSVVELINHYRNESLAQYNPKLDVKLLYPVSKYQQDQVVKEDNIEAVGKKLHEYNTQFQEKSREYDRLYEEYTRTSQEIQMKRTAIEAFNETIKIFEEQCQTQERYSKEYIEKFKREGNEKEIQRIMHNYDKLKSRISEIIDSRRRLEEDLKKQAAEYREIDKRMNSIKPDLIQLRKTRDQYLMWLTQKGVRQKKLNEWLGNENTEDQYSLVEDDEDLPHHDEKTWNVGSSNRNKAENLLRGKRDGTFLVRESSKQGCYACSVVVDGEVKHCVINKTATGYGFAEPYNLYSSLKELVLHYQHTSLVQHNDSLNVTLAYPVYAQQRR

Row | SMILES | CD69 @ 100 nM (% Inh) [1] | IC50 [2] | IC50 [3] | CD69 @ 100 nM (% Inh) ([1]; 0.1 µM) | BTK @ 0.01 μM (% Inh) [2] | BTK @ 0.1 μM (% Inh) [2] | PI3Kδ @ 0.01 μM (% Inh) [3] | PI3Kδ @ 0.1 μM (% Inh) [3] | BTK @ 1 μM (% Inh) [2] | PI3Kδ @ 1 μM (% Inh) [3] | IC50 ([1]; Mus musculus, Splenocyte)
1 | COc1ccc(-c2nn(C3CCc4ccccc4C3)c3ncnc(N)c23)cn1 (racemic) [compound 15, 3-(6-methoxypyridin-3-yl)-1-(1,2,3,4-tetrahydronaphthalen-2-yl)-1H-pyrazolo[3,4-d]pyrimidin-4-amine] | −0.75 ± 6.93 (n = 3) % Inh | 0.565 µM | 0.067 µM | – | – | – | – | – | – | – | –
2 | C=CC(=O)N1CC(n2nc(-c3cc(O)cc(F)c3)c3c(N)ncnc32)Cc2cc(C)ccc21 (single isomer, unassigned) [31a, 1-(3-(4-amino-3-(3-fluoro-5-hydroxyphenyl)-1H-pyrazolo[3,4-d]pyrimidin-1-yl)-6-methyl-3,4-dihydroquinolin-1(2H)-yl)prop-2-en-1-one] | – | 0.0095 µM | 0.0277 µM | 15.47 ± 13.75 (n = 8) % Inh | 67.39 % Inh | 93.84 % Inh | 33.04 % Inh | 68.13 % Inh | – | – | –
3 | Nc1ncnc2c1c(-c1ccc(Br)c(O)c1)nn2C1CCc2ccccc21 (single isomer, unassigned) [36a, 5-[4-amino-1-(2,3-dihydro-1H-inden-1-yl)-1H-pyrazolo[3,4-d]pyrimidin-3-yl]-2-bromophenol] | 1.63 ± 7.31 (n = 3) % Inh | 0.19 µM | 0.001 µM | – | – | 26.99 % Inh | – | 34.17 % Inh | 72.83 % Inh | 76.31 % Inh | –
4 | COc1ccc(-c2nn(C3CCc4ccccc4C3)c3ncnc(N)c23)cc1F (single isomer, unassigned) [Compound No. 14b, 3-(3-fluoro-4-methoxyphenyl)-1-(1,2,3,4-tetrahydronaphthalen-2-yl)-1H-pyrazolo[3,4-d]pyrimidin-4-amine] | 24.20 ± 12.24 (n = 6) % Inh | 1.59 µM | 0.0254 µM | – | – | – | – | – | – | – | –
5 | Nc1ncnc2c1c(-c1ccc3[nH]cnc3c1)nn2C1CCc2ccccc2C1 (single isomer, unassigned) [Compound No. 19a, 3-(1H-benzo[d]imidazol-5-yl)-1-(1,2,3,4-tetrahydronaphthalen-2-yl)-1H-pyrazolo[3,4-d]pyrimidin-4-amine] | – | 1.21 µM | 0.0148 µM | 24.62 ± 10.79 (n = 6) % Inh | – | – | – | – | – | – | –
6 | Nc1ncnc2c1c(-c1ccc3[nH]cnc3c1)nn2C1CCc2ccccc2C1 (single isomer, unassigned) [Compound No. 19b, 3-(1H-benzo[d]imidazol-5-yl)-1-(1,2,3,4-tetrahydronaphthalen-2-yl)-1H-pyrazolo[3,4-d]pyrimidin-4-amine] | – | 1.27 µM | 0.0064 µM | 36.67 ± 6.35 (n = 6) % Inh | – | – | – | – | – | – | –
7 | Nc1ncnc2c1c(-c1cc(O)cc(Cl)c1)nn2C1Cc2ccccc2C1 [Compound No. 67, 3-[4-amino-1-(2,3-dihydro-1H-inden-2-yl)-1H-pyrazolo[3,4-d]pyrimidin-3-yl]-5-chlorophenol] | 65.11 ± 18.09 (n = 6) % Inh | 0.142 µM | 0.0041 µM | – | – | 43.63 % Inh | – | 84.5 % Inh | 87.64 % Inh | 90.92 % Inh | 0.109 ± 0.057 µM
8 | COc1cc(-c2nn(C3Cc4ccccc4C3)c3ncnc(N)c23)ccc1O [Compound No. 85, 4-[4-amino-1-(2,3-dihydro-1H-inden-2-yl)-1H-pyrazolo[3,4-d]pyrimidin-3-yl]-2-methoxyphenol] | 24.82 ± 9.20 (n = 3) % Inh | 0.154 µM | 0.0347 µM | – | 12.89 % Inh | 43.43 % Inh | 35.56 % Inh | 59.95 % Inh | – | – | –
9 | Nc1ncnc2c1c(-c1cc(O)c(Cl)cc1Cl)nn2C1Cc2ccccc2C1 [Compound No. 103, 5-[4-amino-1-(2,3-dihydro-1H-inden-2-yl)-1H-pyrazolo[3,4-d]pyrimidin-3-yl]-2,4-dichlorophenol] | 25.06 ± 22.54 (n = 5) % Inh | 0.162 µM | 0.0457 µM | – | – | 47.24 % Inh | – | 72.71 % Inh | 89.82 % Inh | 94.52 % Inh | –
10 | N#Cc1c(-c2cc(O)c(F)c(F)c2)c2c(N)ncnc2n1C1Cc2ccccc2C1 [compound 135, 4-amino-5-(3,4-difluoro-5-hydroxyphenyl)-7-(2,3-dihydro-1H-inden-2-yl)-7H-pyrrolo[2,3-d]pyrimidine-6-carbonitrile] | – | – | – | – | 51.3 % Inh | 88.59 % Inh | 51.74 % Inh | 84.33 % Inh | – | – | –
11 | Nc1ncnc2c1c(-c1cc(O)c(F)c(F)c1)c(F)n2C1Cc2ccccc2C1 [compound 136, 5-[4-amino-7-(2,3-dihydro-1H-inden-2-yl)-6-fluoro-7H-pyrrolo[2,3-d]pyrimidin-5-yl]-2,3-difluorophenol] | – | – | – | – | 72.51 % Inh | 93.64 % Inh | 38.49 % Inh | 80.15 % Inh | – | – | –
12 | Nc1ncnc2c(C3Cc4ccccc4C3)cn(-c3cc(O)c(F)c(F)c3)c12 [compound 137, 5-[4-amino-7-(2,3-dihydro-1H-inden-2-yl)-5H-pyrrolo[3,2-d]pyrimidin-5-yl]-2,3-difluorophenol] | – | – | – | – | 87.65 % Inh | 96.31 % Inh | 6.28 % Inh | 45.54 % Inh | – | – | –
13 | NCc1ccc(-c2nn(C3Cc4ccccc4C3)c3ncnc(N)c23)cc1 [compound 138, 3-[4-(aminomethyl)phenyl]-1-(2,3-dihydro-1H-inden-2-yl)-1H-pyrazolo[3,4-d]pyrimidin-4-amine] | – | – | – | – | −7.89 % Inh | −6.05 % Inh | −2.71 % Inh | 5.54 % Inh | – | – | –
14 | Nc1ccc2c(c1)CC(n1nc(-c3cc(O)c(F)c(F)c3)c3c(N)ncnc31)C2 (stereo not drawn) [compound 139, 5-[4-amino-1-(5-amino-2,3-dihydro-1H-inden-2-yl)-1H-pyrazolo[3,4-d]pyrimidin-3-yl]-2,3-difluorophenol] | – | – | – | – | 80.96 % Inh | 95.07 % Inh | 65.26 % Inh | 90.95 % Inh | – | – | –
15 | Nc1nccn2c(C3Cc4ccccc4C3)nc(-c3cc(O)c(F)c(F)c3)c12 [compound 140, 5-[8-amino-3-(2,3-dihydro-1H-inden-2-yl)imidazo[1,5-a]pyrazin-1-yl]-2,3-difluorophenol] | – | – | – | – | 83.98 % Inh | 96.04 % Inh | 31.54 % Inh | 79.18 % Inh | – | – | –
